{"source": "paper PMC3179854", "about": "(Journal of the American Chemical Society, 2011)", "key": {"[1]": {"molecular_target": "T1, CYP3A4 (Homo sapiens, UniProt P08684)", "T1 sequence (P08684 whole entry)": "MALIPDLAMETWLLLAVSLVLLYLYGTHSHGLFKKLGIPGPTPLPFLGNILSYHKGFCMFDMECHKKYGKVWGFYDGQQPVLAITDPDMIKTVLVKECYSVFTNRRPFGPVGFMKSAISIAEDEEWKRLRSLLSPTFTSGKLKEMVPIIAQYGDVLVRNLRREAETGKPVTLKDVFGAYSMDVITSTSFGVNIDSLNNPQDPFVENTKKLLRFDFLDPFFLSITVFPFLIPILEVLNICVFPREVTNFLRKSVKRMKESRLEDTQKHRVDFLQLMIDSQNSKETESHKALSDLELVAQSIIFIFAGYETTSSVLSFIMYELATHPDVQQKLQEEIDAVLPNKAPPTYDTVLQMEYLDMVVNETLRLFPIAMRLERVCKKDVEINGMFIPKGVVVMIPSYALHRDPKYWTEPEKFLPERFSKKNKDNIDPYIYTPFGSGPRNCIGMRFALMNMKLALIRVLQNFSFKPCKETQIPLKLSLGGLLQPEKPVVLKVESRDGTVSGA", "assay": "Inhibition of CYP3A4-catalyzed testosterone metabolism in Baculosomes"}, "[2]": {"molecular_target": "T1, CYP3A4", "details": "read-out: IC50, literature value; cited from earlier work"}, "[3]": {"tested_on": "pooled human liver microsomes", "format": "in vitro ADME", "details": "substrates dextromethorphan (CYP2D6), diclofenac (CYP2C9), phenacetin (CYP1A2), testosterone (CYP3A4)"}, "[4]": {"molecular_target": "T2, CYP2D6 (Homo sapiens, UniProt P10635)", "T2 sequence (P10635 whole entry)": "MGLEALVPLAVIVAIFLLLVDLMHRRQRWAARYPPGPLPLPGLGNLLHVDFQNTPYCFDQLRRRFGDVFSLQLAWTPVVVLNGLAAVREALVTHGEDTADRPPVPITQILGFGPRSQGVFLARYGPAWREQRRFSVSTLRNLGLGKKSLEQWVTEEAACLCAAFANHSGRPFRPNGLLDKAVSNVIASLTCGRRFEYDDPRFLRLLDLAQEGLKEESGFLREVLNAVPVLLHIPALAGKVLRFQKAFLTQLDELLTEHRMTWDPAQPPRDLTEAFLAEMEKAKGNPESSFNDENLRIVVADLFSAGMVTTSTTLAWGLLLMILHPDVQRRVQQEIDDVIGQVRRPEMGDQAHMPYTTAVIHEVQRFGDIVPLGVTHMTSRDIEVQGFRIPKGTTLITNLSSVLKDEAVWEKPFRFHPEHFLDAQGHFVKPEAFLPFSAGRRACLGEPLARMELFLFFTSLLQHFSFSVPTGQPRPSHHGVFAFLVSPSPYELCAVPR", "assay": "Metabolic stability measured with chromatography", "format": "in vitro ADME"}, "[5]": {"molecular_target": "T2, CYP2D6", "assay": "MesaPlate metabolic stability", "format": "in vitro ADME"}, "[6]": {"molecular_target": "T3, CYP1A2 (Homo sapiens, UniProt P05177)", "T3 sequence (P05177 1-516)": "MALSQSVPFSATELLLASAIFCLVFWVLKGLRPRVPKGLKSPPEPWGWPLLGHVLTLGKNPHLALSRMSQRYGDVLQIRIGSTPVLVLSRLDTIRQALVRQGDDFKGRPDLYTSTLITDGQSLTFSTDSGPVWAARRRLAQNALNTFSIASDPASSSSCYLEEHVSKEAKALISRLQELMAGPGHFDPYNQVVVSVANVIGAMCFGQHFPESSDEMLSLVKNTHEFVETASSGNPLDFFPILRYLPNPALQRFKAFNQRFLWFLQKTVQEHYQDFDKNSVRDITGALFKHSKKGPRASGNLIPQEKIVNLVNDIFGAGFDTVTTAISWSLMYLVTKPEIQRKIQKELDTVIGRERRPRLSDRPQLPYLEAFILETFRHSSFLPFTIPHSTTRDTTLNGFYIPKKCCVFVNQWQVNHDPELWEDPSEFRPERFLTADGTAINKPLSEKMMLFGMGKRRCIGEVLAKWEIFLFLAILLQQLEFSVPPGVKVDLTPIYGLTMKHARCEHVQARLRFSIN", "details": "CYP1A2, substrate conc. 500 μM"}, "[7]": {"molecular_target": "T3, CYP1A2", "details": "CYP1A2, substrate conc. 500 μM", "remark": "listed apart in the source"}, "[8]": {"molecular_target": "T4, CYP2C9 (Homo sapiens, UniProt P11712)", "T4 sequence (P11712 whole entry)": "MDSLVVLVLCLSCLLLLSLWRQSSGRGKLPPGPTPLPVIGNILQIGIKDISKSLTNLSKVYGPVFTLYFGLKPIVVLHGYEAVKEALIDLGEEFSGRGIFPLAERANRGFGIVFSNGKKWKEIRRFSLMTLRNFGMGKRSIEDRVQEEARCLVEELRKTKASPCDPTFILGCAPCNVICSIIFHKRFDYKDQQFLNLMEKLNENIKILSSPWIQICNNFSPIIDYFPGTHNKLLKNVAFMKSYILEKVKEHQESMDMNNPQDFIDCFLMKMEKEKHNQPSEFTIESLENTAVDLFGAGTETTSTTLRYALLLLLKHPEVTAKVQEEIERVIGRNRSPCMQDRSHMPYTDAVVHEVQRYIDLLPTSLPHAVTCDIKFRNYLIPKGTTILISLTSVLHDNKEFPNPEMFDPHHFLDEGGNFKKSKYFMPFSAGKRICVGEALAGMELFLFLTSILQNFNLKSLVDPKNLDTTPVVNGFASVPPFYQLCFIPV", "assay": "in vitro"}, "[9]": {"molecular_target": "T4, CYP2C9", "details": "cited from earlier work"}, "[10]": {"molecular_target": "T4, CYP2C9"}, "[11]": {"molecular_target": "T1, CYP3A4", "assay": "MesaPlate metabolic stability"}}, "note": "Where two headings read alike, the source gives them in different places.", "data": [{"smiles": "c1ccc(-n2ccnc2)cc1", "note": "[1-phenylimidazole]", "values": [{"measurement": "IC50", "setting": "[1]", "result": "2.39 ± 0.01", "unit": "µM"}, {"measurement": "IC50", "setting": "[2]", "result": 2.7, "unit": "µM"}, {"measurement": "measured rate of P450 oxidation in the presence of inhibitor", "setting": "[3]", "result": "much lower"}]}, {"smiles": "CN(C)CCC=C1c2ccccc2CCc2ccccc21", "note": "[Amitriptyline]", "values": [{"measurement": "−rRH (metabolic stability), Chromatography", "setting": "[4]; CYP2D6, substrate conc. 60 μM", "result": "3.8 ± 0.4", "unit": "nmol/min/nmol P450"}, {"measurement": "−rRH (metabolic stability), MesaPlate", "setting": "[5]; CYP2D6, substrate conc. 60 μM", "result": "6.7 ± 0.8", "unit": "nmol/min/nmol P450"}]}, {"smiles": "Cc1c[nH]c2ccccc12", "note": "[3-methylindole]", "values": [{"measurement": "−rRH (metabolic stability), Chromatography", "setting": "[6]", "result": "10.7 ± 0.8", "unit": "nmol/min/nmol P450"}, {"measurement": "−rRH (metabolic stability), MesaPlate", "setting": "[7]", "result": "15.8 ± 1.8", "unit": "nmol/min/nmol P450"}]}, {"smiles": "O=C(O)Cc1ccccc1Nc1c(Cl)cccc1Cl", "note": "[Diclofenac]", "values": [{"measurement": "Km", "setting": "[8]", "result": "20 ± 7", "unit": "µM"}, {"measurement": "Km", "setting": "[9]", "result": 5, "unit": "µM"}, {"measurement": "kcat (Literature)", "setting": "[9]", "result": 0.483, "unit": "s⁻¹"}, {"measurement": "kcat (MesaPlate)", "setting": "[10]", "result": "0.183 ± 0.017", "unit": "s⁻¹"}]}, {"smiles": "C[C@]12CC[C@H]3[C@@H](CCC4=CC(=O)CC[C@@]43C)[C@@H]1CC[C@@H]2O", "note": "[Testosterone]", "values": [{"measurement": "kcat (MesaPlate)", "setting": "[11]; CYP3A4, Michaelis-Menten fit", "result": "1.97 ± 0.13", "unit": "s⁻¹"}, {"measurement": "Km", "setting": "[11]; human, Baculosomes with CYP3A4", "result": "31 ± 7", "unit": "µM"}]}, {"smiles": "COCCc1ccc(OCC(O)CNC(C)C)cc1", "note": "(stereo not drawn) [Metoprolol]", "values": [{"measurement": "−rRH (metabolic stability), Chromatography", "setting": "[4]; CYP2D6, substrate conc. 100 μM", "result": "9.8 ± 2.3", "unit": "nmol/min/nmol P450"}, {"measurement": "−rRH (metabolic stability), MesaPlate", "setting": "[5]; CYP2D6, substrate conc. 100 μM", "result": "12.2 ± 2.2", "unit": "nmol/min/nmol P450"}]}]}
